Assay results as given in patent US8680052B1, “Methods of treating, reducing the incidence of, and/or preventing ischemic events” (The Medicines Company, priority 2013, dated 2014).

Assays:
[1] = in vivo; cited from earlier work
[2] = system: patients undergoing percutaneous coronary intervention (PCI); conditions: human, in vivo, 48 h;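 also: bleeding events compared through 48 h in the safety population, meaning patients given at least one study drug dose and grouped by treatment actually received, two-tailed tests at 0.05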
Experimental: The primary efficacy endpoint was the composite of mortality, myocardial infarction, or ischemia-driven revascularization at 48 hours. The primary analysis was performed on a modified intent-to-treat population. Confirmatory analyses were performed on an intent-to-treat population. Secondary endpoints included the individual rates of mortality, myocardial infarction, new Q-wave myocardial infarction, ischemia-driven revascularization, abrupt vessel closure, or stroke at 48 hours. Mortality at 30 days and 1 year was also recorded. The clinical events committee adjudicated myocardial infarction, Q-wave myocardial infarction, ischemia-driven revascularization, stent thromboses, and stroke (ischemic or hemorrhagic). The definition of stent thrombosis was similar to the Academic Research Consortium definition of definite stent thrombosis. After review of the prespecified analyses, two exploratory endpoints less reliant on periprocedural biomarker ascertainment were examined. The exploratory endpoints, which were composed of prespecified and adjudicated endpoints, were the composite of mortality, Q-wave myocardial infarction, or ischemia-driven revascularization and the composite of mortality, Q-wave myocardial infarction, or stent thrombosis. Bleeding and adverse events through 48 hours were compared.
All efficacy analyses were performed on the modified intent-to-treat population, defined as all randomized patients who received at least one dose of study drug and underwent the index PCI. All safety-related analyses were performed on the safety population, which included all patients who received at least one dose of assigned study drug. Patients in the safety analyses were assigned to a treatment arm based on treatment actually received, not as randomized. Intent-to-treat analyses are also presented for full disclosure of results. All statistical tests were two-tailed using a level of significance of 0.05. […] Logistic regression was also used to analyze the majority of the remaining secondary endpoints.

For CSCCNc1nc(SCCC(F)(F)F)nc2c1ncn2[C@@H]1O[C@H](COP(=O)(O)OP(=O)(O)C(Cl)(Cl)P(=O)(O)O)[C@@H](O)[C@H]1O [Cangrelor, cangrelor], the plasma half-life [1] is listed as 3 to 5 min, the “ACUITY criteria Major bleeding” value [2] is listed as 147 (5.5) no. (%) and the “ACUITY criteria Minor bleeding” value [2] is listed as 320 (12.0) no. (%). The “Access site bleeding requiring radiologic or surgical intervention” value [2] was 8 (0.3) no. (%), the Any blood transfusion [2] was 26 (1.0) no. (%) and the Any platelet transfusion [2] was 4 (0.2) no. (%). The “Any red blood cell transfusion” value [2] was 25 (0.9) no. (%), the “Drop in hemoglobin and/or hematocrit” value [2] was 33 (1.2) no. (%) and the Ecchymosis [2] was 95 (3.6) no. (%). For the same compound, the Epistaxis [2] was 6 (0.2) no. (%), the “GUSTO criteria Mild bleeding” value [2] was 427 (16.0) no. (%) and the “GUSTO criteria Moderate bleeding” value [2] was 20 (0.8) no. (%). The “GUSTO criteria Severe/life-threatening bleeding” value [2] was 9 (0.3) no. (%), the “Hematoma <5 cm at puncture site” value [2] was 150 (5.6) no. (%) and the “Hematoma ≧5 cm at puncture site” value [2] was 115 (4.3) no. (%). For the same compound, the Hemodynamic compromise [2] was 7 (0.3) no. (%), the Intracranial hemorrhage [2] was 2 (0.1) no. (%) and the Intraocular [2] was 0 (0.0) no. (%). For the same compound, the “Odds Ratio (95% CI): Any blood transfusion” value [2] was 1.624 (0.869, 3.034), the “Odds Ratio (95% CI): Any platelet transfusion” value [2] was 1.992 (0.365, 10.887) and the “Odds Ratio (95% CI): Any red blood cell transfusion” value [2] was 1.665 (0.876, 3.166). For the same compound, the “Odds Ratio (95% CI): Drop in hemoglobin and/or hematocrit” value [2] was 0.938 (0.581, 1.514), the “Odds Ratio (95% CI): Ecchymosis” value [2] was 1.684 (1.207, 2.349) and the “Odds Ratio (95% CI): Epistaxis” value [2] was 0.497 (0.186, 1.325). For the same compound, the “Odds Ratio (95% CI): GUSTO criteria Mild bleeding” value [2] was 1.442 (1.232, 1.688), the “Odds Ratio (95% CI): Reoperation for bleeding” value [2] was 0.995 (0.062, 15.924) and the “Odds Ratio (95% CI): Retroperitoneal” value [2] was 1.992 (0.180, 21.978). For the same compound, the “Odds Ratio (95% CI): TIMI criteria Major bleeding” value [2] was 0.442 (0.136, 1.436), the “Odds Ratio (95% CI): TIMI criteria Minor bleeding” value [2] was 1.372 (0.719, 2.618) and the “Odds Ratio (95% CI): Thrombocytopenia” value [2] was 0.663 (0.111, 3.973). The “Oozing at puncture site” value [2] was 125 (4.7) no. (%), the Reoperation for bleeding [2] was 1 (0.0) no. (%) and the Retroperitoneal [2] was 2 (0.1) no. (%). The “TIMI criteria Major bleeding” value [2] was 4 (0.2) no. (%) and the “TIMI criteria Minor bleeding” value [2] was 22 (0.8) no. (%).
